# Experimental data: patent US20200239587A1, “SENSITIZATION OF TUMORS TO THERAPIES THROUGH ENDOGLIN ANTAGONISM” (Cedars-Sinai Medical Center, priority 2016, published 2020)
# What was measured:
# Type in all cases: cell-based, human
# [1] = test system: NRF1, MTFA, and CPT1C in 22Rv1 cells; experiment: mRNA expression of PGC1α target genes; settings: radiation vs radiation plus TRC105; p<0.001
# Procedure: FIGS. 24A-24D depict that PGC1α and mitochondrial biogenesis are regulated by BMP/CD105. 22Rv1 cells were incubated with IgG or TRC105 with or without 4 Gy irradiation. All measurements were made 72 hours post radiation. FIG. 24A) Western blot for whole cell lysate, nuclear and cytoplasmic fractions were independently analyzed for PGC1α expression. Loading controls included β-actin (whole cell), lamin B (nuclear marker), and Rho A (cytoplasm marker). FIG. 24B) Immunofluorescent localization of PGC1α was visualized with DAPI nuclear counterstain. FIG. 24C) mRNA expression of PGC1α target genes, NRF1, MTFA, and CPT1C was measured. mRNA expression was normalized to GAPDH and untreated IgG 0 Gy. FIG. 24D) Mitochondrial DNA (mtDNA) was measured from total DNA extracts and normalized to nuclear DNA and compared to untreated IgG 0 Gy. Data are reported as means+/−S.D. of 3 independent experiments. (***p<0.001, ****p<0.0001).
# Total RNA was extracted using the RNeasy kit (Qiagen). 1 μg RNA was used for cDNA synthesis using iSCRIPT cDNA synthesis kit (1708891, Bio-Rad). Quantitative RT-PCR was performed with 5 replicates using the Step One Real-Time PCR system (Applied Biosystems). […] For RNA-sequencing, Ion Proton AmpliSeq Transcriptome RNA Sequencing was performed achieving an average of 3M reads. We mapped an average of 88% of the reads to the human genome with Torrent Suite version 4.4.2.
# [2] = test system: survivin and full length PARP1 in CW22Rv1; experiment: Survival proteins after radiation and TRC105; settings: 4Gy radiation and TRC105, 5 days
# 22Rv1 = experiment: γ-H2AX and p53BP foci after irradiation; settings: for γ-H2AX and p53BP foci: TRC105 plus 4Gy vs radiation alone
# Procedure: 22Rv1 were pre-treated with 1 μg/ml TRC105 24 hours prior to irradiation with 4 Gy. FIG. 22A) γ-H2AX or p53 bp were imunolocalized at 4, 24, and 48 hours post radiation. Foci per nuclei were quantified (n=100). FIG. 22B) Comet assay was performed 30 minutes and 24 hours following irradiation. The tail moment was quantified (n=50). FIG. 22C) Cell cycle analysis was performed on 22Rv1 at 0, 4, 8, and 24 hours post radiation in the presence of IgG or TRC105 (n=3) in 3 independent experiments. (***p<0.001, ****p<0.0001).
# [3] = test system: CW22Rv1 cells in 3D co-culture with mouse prostatic fibroblasts; experiment: 3D co-culture epithelial proliferation, EpCam and Ki-67 FACS
# Procedure: A modified version of the 3D organotypic co-culture system was performed in a collagen matrix similar to that previously reported (Stark et al., 1999, J Invest Dermatol 112, 681-691). Collagen matrix gels were prepared by mixing five volumes of rat tail collagen I with two volumes of matrigel (NCI), one volume of 10× DMEM medium (GE Healthcare Life Sciences), and one volume of FBS (Atlanta Biologicals), Rv1 and primary mouse prostatic fibroblasts were combined in a 1:3 ratio. Nylon squares were coated with collagen and placed on metal grids in a 6-well plate. Gel plugs (150 μl) were transferred onto the nylon squares and media was added to the level of the nylon mesh. After 72 hours, the cells were dissociated from the matrix with collagenase and dispersed for FACS analysis.
# FACS experiments were performed with eBiosciences antibodies: anti-human Stro-1-FITC (340105), anti-human CD90-PE (12-0909-42), anti-human CD105-APC (17-1057-41), anti-mouse CD105-APC (17-1051-82), anti-human CD117-PE-Cy7 (15-1178-41), anti-human Ki67-PECy7 (25-5699-41), and anti-human EpCAM-PE (12-9326-41). All events were acquired on a BD LSRII flow cytometer in the Cedars-Sinai Medical Center FACS core installed with BD FACSDiva software. Files were analyzed using FlowJo software v10.2. EpCAM positive cells were used to identify the CW22Rv1 epithelia in three-dimensional (3D) co-cultures and further gated for CD105 or Ki67 positive cells.
# CW22Rv1, C42B, and PC3 cells from ATCC were expanded as directed. Prostatectomy specimens from Cedars-Sinai Medical Center or the Greater Los Angeles Veterans Affairs were cultured to generate NAF and CAF cells using the same method, as C57BL/6 mouse wild-type prostatic fibroblasts were grown as previously reported (Franco et al., 2011, Cancer research 71, 1272-1281; Kiskowski et al., 2011, Cancer research 68, 4709-4718). TRC105 and M1043 were provided by TRACON Pharmaceuticals, Inc. (San Diego, Calif.). Enzalutamide (Xtandi) was purchased from Medivation (San Francisco, Calif.).
substance,measurement,setting,value
TRC105: partially humanized monoclonal antibody that blocks BMP signaling; human-specific CD105 (endoglin) neutralizing antibody from Tracon Pharmaceuticals,"mRNA expression of NRF1, MTFA, and CPT1C",[1],significantly increased with radiation compared to that in the presence of TRC105
same,survival proteins (survivin and full length PARP1),[2],precipitous down regulation of survival proteins
same,number of cells with greater than 10 foci per nuclei,22Rv1; TRC105 alone (radiation alone 59.6%),4.3%
same,γ-H2AX and p53BP foci,22Rv1; 4 and 24 hours post radiation,significant increase in γ-H2AX and p53BP foci
same,γ-H2AX and p53BP foci,22Rv1; by 48 hours,no difference
same,double stranded DNA breaks,"22Rv1; TRC105 treatment alone vs untreated, within 24 hours, persisted past 72 hours",significant increase in double stranded DNA breaks
same,"epithelial proliferation, antibody alone","[3]; compared to IgG control, 1 μg/mL, 72 hours",did not change epithelial proliferation
same,"enzalutamide-induced epithelial proliferation, single antibody",[3]; enzalutamide plus M1043 or TRC105,did not alter enzalutamide-induced epithelial proliferation
same,"epithelial proliferation, enzalutamide with both M1043 and TRC105",[3]; triple combination,restored epithelial proliferation to that of control
